ChEMBL document CHEMBL1201862, “PubChem BioAssay data set” (2004)
The source made the active and inactive calls.

Legend:
[1] = target: T1, RNA-binding protein pos-1 (Caenorhabditis elegans, UniProt G5EF15); test: inhibitors of POS-1/mex-3 RNA binding, dose response, biochemical, fluorescence polarization (AID 1964);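 further: purified POS-1 fused to maltose binding protein made in E. coli; potency of compounds blocking POS-1 binding to fluorescent RNA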
T1 sequence (G5EF15 whole entry): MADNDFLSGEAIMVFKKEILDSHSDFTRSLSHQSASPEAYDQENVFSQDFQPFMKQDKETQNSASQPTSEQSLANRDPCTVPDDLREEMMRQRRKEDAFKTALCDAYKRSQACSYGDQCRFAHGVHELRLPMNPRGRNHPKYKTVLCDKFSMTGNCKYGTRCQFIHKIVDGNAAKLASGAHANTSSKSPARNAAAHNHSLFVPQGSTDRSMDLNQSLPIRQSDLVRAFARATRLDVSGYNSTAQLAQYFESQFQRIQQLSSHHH

[2] = target: Induced myeloid leukemia cell differentiation protein Mcl-1 (Homo sapiens, UniProt Q07820); type: functional
[3] = target: T2, Apoptotic protease-activating factor 1 (Homo sapiens, UniProt O14727); type: functional
T2 sequence (O14727 whole entry): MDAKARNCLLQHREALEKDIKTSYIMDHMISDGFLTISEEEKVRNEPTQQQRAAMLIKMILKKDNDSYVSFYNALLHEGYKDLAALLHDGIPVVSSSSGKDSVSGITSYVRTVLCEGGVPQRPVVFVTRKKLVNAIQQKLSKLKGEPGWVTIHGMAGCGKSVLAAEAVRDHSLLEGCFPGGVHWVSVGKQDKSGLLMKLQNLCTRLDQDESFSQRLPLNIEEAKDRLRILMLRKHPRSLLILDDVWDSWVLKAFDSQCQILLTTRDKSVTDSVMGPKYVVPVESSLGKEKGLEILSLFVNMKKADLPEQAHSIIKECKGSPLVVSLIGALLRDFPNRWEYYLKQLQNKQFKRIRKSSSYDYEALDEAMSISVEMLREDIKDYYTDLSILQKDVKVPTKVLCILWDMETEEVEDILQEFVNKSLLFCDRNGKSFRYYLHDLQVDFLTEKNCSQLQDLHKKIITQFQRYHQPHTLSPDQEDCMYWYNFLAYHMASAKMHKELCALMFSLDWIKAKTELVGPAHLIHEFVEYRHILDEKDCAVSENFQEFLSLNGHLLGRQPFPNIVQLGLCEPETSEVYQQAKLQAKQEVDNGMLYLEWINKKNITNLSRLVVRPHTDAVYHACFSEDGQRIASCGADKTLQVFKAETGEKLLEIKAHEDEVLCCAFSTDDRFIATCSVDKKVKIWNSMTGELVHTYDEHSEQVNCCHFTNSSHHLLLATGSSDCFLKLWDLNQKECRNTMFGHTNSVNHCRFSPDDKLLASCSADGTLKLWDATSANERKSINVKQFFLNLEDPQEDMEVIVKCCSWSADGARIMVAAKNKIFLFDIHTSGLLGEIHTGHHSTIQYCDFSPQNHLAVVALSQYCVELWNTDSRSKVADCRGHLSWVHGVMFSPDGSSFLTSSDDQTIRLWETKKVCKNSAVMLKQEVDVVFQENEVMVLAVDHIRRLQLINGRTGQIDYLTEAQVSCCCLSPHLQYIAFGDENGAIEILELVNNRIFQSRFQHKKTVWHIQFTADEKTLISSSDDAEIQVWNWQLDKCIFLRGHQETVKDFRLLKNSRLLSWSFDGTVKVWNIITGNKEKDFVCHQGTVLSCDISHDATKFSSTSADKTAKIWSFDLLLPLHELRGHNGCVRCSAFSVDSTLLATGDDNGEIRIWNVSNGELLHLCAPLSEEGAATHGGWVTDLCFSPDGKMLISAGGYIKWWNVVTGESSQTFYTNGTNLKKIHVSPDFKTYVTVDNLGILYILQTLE

Protein RecA = target: T3, Protein RecA (Mycobacterium tuberculosis, UniProt P9WHJ3); test: Fluorescence Cell-Free Homogeneous Dose Retest to Identify Inhibitors of RecA-Intein Splicing Activity. [Related pubchem assays (depositor defined):AID2097, AID2223, AID489010, AID492950]; type: functional
T3 sequence (P9WHJ3 whole entry): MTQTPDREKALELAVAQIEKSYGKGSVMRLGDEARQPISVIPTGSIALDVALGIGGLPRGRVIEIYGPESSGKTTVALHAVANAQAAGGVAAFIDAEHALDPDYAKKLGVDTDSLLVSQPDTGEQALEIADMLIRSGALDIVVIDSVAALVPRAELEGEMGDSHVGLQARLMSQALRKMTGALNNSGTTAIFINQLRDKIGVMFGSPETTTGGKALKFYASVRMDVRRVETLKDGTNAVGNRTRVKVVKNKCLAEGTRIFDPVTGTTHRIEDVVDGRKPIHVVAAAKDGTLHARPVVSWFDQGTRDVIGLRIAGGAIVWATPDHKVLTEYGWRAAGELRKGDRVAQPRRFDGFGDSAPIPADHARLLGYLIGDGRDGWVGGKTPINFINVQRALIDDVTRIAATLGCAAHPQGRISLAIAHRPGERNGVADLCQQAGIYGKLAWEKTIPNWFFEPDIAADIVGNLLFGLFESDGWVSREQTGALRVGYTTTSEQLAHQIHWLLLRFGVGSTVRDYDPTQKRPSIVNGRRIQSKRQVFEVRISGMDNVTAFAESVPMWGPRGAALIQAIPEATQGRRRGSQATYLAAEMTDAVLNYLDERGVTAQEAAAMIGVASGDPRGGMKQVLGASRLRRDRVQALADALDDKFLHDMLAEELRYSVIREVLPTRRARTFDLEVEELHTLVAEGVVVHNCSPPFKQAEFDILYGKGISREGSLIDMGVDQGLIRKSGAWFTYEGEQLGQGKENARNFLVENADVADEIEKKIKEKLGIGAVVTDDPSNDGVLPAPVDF

Chain of Induced myeloid leukemia cell differentiation protein Mcl-1 (Q07820 whole entry): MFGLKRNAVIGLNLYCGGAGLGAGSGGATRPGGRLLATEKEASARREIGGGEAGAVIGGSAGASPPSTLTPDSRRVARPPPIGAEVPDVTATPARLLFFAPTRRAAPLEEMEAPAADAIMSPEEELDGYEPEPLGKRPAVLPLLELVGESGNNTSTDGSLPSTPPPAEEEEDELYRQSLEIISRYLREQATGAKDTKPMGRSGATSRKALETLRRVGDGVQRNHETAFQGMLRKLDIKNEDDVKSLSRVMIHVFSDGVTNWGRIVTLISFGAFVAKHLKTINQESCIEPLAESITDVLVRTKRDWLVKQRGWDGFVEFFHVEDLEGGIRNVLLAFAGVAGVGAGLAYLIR

SMILES | EC50 [1] | IC50 [2] | IC50 [3] | EC50 (Protein RecA)
CC(=O)N(C1=C(Cl)C(=O)c2ccccc2C1=O)C1CCCCC1 | 139 µM (active) | 14.5 µM (active) | 3.12 µM (active) | 1.18 µM (active)
Oc1ccc(-c2cn3c(n2)SCC3)cc1O | 3.63 µM (active) | 2.26 µM (active) |  | 
Cc1ccc(NC2=C/C(=N\S(=O)(=O)c3cccs3)c3ccccc3C2=O)c(C)c1 |  |  | 0.411 µM (active) | 0.185 µM (active)
COc1ccc(/C=N/NC(=O)c2nn(-c3ccccc3)c(=O)c3c(N)scc23)cc1 |  |  | 15.3 µM (active) | 0.22 µM (active)
